# Measurements: US20220257706A1, “EPIDERMAL GROWTH FACTOR RECEPTOR (EGFR) LIGANDS” (NANYANG TECHNOLOGICAL UNIVERSITY, priority 2019, published 2022)
# Legend:
# HUVEC-CS cells = assay: Endothelial tube formation assay; type: cell-based; details: data not shown
# Protocol: Endothelial tube formation assay was performed using a μ-slide (ibidi, Germany). Briefly, 10 μL of gel matrix (BD Matrigel™ Basement Membrane Matrix) was casted onto each μ-slide well and left to solidify. […] After incubation for 2 h, the wells were photographed using inverted phase-contrast microscope. Images were analyzed for the numbering of branching points using the Wimasis image analysis platform.
# newborn ICR mice = assay: Newborn mice model for incisor eruption; type: in vivo, mouse; details: 3 mg/kg subcutaneous, five consecutive days; saline control 153 h
# Protocol: ICR mice were obtained from Vital Rital Laboratories (Beijing, China). […] All experiments were approved and performed in accordance with the institutional guidelines of the Experimental Animal Center of the Chinese Academy of Medical Science (Beijing, China). Subcutaneous injections were made for five consecutive days in the nape of the neck of the newborn mice starting from the day of birth (day 0). […] Incisor eruption was recorded daily by visual inspection. Incisor eruption was defined as the time at which a given tooth first pierced the oral epithelium.
# HaCaT cells = type: cell-based, human
# Protocol: (§1) HaCaT (human keratinocyte), HUVEC-CS (endothelial cells) cells were cultured in Dulbecco's modification of Eagle's medium (DMEM) supplemented with 10% fetal bovine serum and 100 U/mL of penicillin and streptomycin. Normal Human Epidermal Keratinocytes adult purchased from Lifeline® cell technology were cultured in Lifeline® DermaLife K Medium. They were grown in a 5% CO2 humidified incubator at 37° C. HaCaT cells were stably transfected with pGL4.33[luc2P/SRE/Hygro] (Promega) and selected using 250 μg/mL hygromycin. Stable HaCaT cells expressing SRE luciferase reporter were maintained with 250 μg/mL hygromycin.
# (§2) Cell proliferation was determined using crystal violet staining. […] 3417-Da-peptide aB1 is a CRP isolated from Achyranthes bidentata with the amino acid sequence […] (SEQ ID NO:11). Crystal violet staining was performed as previously described. Briefly, after the incubation period, the wells were fixed with 4% buffered paraformaldehyde for 20 min. The cells were then stained with 0.25% crystal violet in 20% methanol for 15 min. The excess crystal violet stain was rinsed with distilled water for 4-5 times and air-dried. Glacial acetic acid (10%) in Milli-Q water was added to extract the crystal violet stain. The absorbance was then measured at 595 nm using a microplate reader (Tecan Infinite® 200 Pro, Switzerland).
# c-Jun = assay: Gene expression analysis (qPCR) of c-Jun in HaCaT cells; type: cell-based, human; details: 2 h treatment
# Protocol: Total RNA was extracted from HaCaT and primary human keratinocytes using PureLink™ RNA mini kit (Thermo Fisher Scientific, US). First-strand cDNA was synthesised from 600 ng of total RNA using SuperScript™ II Reverse Transcriptase and Oligo(dT)12-18 (Thermo Fisher Scientific, US) according to the manufacturer's instructions. Quantitative PCR (qPCR) was performed with iTaq Universal SYBR Green Supermix (Bio-Rad, US) on a CFX96 Touch Real-Time PCR Detection System (Bio-Rad, US) for 40 cycles. PCR reaction (20 μL): 3 μL cDNA, 1 μL primer mix (10 μM), 6 μL DEPC-treated water and 10 μL mastermix. […] GAPDH was used as a housekeeping gene for normalization. Fold changes of gene expressions with c-fos and c-Jun were calculated using the 2^−ΔΔCT method.
# EGFR = EGFR (Homo sapiens, UniProt P00533); assay: Immunoprecipitation / western blot of EGFR tyrosine phosphorylation in HaCaT cells; type: cell-based; set-up: endogenous in cells; host or cells: HaCaT; details: 5 μM
# Sequence of EGFR (P00533 25-1210): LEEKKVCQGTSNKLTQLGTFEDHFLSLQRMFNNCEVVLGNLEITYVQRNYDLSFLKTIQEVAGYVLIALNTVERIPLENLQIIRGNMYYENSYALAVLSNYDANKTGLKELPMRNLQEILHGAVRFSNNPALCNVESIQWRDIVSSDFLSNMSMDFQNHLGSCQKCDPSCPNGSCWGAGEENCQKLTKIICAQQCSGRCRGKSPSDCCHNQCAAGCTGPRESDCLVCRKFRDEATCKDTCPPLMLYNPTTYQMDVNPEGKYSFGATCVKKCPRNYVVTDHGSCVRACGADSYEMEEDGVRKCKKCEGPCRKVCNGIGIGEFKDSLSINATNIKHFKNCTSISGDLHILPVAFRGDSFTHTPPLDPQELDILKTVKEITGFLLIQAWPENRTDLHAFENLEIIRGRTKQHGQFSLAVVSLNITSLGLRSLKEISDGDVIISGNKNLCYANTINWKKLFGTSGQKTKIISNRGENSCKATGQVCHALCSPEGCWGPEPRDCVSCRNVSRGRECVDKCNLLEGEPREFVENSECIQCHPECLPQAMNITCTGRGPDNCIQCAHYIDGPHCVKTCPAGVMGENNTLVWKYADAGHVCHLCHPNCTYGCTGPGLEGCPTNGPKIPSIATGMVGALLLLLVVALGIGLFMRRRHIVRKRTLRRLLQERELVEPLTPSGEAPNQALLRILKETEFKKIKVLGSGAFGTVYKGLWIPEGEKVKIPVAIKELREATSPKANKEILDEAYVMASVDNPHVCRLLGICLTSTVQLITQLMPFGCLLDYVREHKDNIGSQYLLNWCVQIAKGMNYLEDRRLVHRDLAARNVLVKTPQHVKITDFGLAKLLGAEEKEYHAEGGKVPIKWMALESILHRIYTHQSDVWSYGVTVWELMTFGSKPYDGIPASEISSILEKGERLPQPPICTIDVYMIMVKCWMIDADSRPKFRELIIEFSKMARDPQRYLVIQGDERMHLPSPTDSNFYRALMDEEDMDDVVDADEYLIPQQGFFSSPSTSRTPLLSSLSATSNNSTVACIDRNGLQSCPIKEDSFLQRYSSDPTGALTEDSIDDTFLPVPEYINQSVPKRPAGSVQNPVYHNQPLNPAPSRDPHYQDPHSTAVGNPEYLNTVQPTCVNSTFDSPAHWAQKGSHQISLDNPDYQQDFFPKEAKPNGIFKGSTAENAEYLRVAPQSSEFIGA
# Protocol: Immunoprecipitation was performed using EGFR (D38B1) rabbit monoclonal antibodies conjugated to magnetic beads (Cell Signaling, US). Briefly, the magnetic beads were washed with PBS three times and 50 μg HaCaT cell lysate was added to each tube and allowed to incubate overnight at 4° C. with rotation. After incubation, the magnetic beads were washed five times with PBS. A 6× loading dye with β-mercaptoethanol was added to the resin and heated for 10 min at 85° C. The resultant mixture was centrifuged at 14000 g×1 min and resolved using 10% SDS-PAGE at a 100 V constant for 120 min. Blot transfer was performed on a PVDF membrane (GE healthcare, Sweden) at 250 mA for 120 min on ice. The blot was blocked with 5% BSA TBST before incubating overnight at 4° C. with anti-phosphotyrosine-HRP (R&D systems, US) or anti-EGFR anti-rabbit antibody (1:1000 in 5% BSA TBST; Cell Signaling, US). After incubation, the membrane was washed with TBST at room temperature for three times at 10 min each. The blot was then incubated with secondary anti-rabbit horseradish peroxidase (HRP) (1:5000 in 5% BSA TBST) and was incubated for another 1 h at room temperature. The blot was washed five times 10 min each with TBST at room temperature before the addition of chemiluminescence substrate (Advansta, US) and exposure on X-ray film (Fujifilm, Japan).
# [1] = system: serum response element (SRE); assay: SRE luciferase reporter assay in stable HaCaT cells; type: cell-based, human; details: 6 h incubation
# Protocol: as §1
# Briefly, the cells were cultured in a white 96-well plates to achieve 90% confluency. […] The luciferase assay was performed using the ONE-Glo EX Luciferase Assay System (Promega, US) as per the manufacturer's instructions. Luminescence was measured using a microplate reader (Tecan Infinite® 200 Pro, Switzerland).
# [2] = system: primary human keratinocytes; assay: Primary human keratinocyte proliferation (crystal violet); type: cell-based; details: 72 h, crystal violet assay
# Protocol: as §1, §2
smiles,measurement,setting,value
CC[C@H](C)[C@@H]1NC(=O)[C@H](CCC(=O)O)NC(=O)[C@H]([C@@H](C)O)NC(=O)[C@@H]2CSSC[C@@H]3NC(=O)[C@H](Cc4ccccc4)NC(=O)[C@H](CC(N)=O)NC(=O)[C@H](CO)NC(=O)[C@H](CSSC[C@H](NC(=O)[C@@H](N)CCC(N)=O)C(=O)N[C@@H](CCCCN)C(=O)N4CCC[C@H]4C(=O)N[C@@H](CC(N)=O)C(=O)NCC(=O)N[C@@H](C)C(=O)N[C@@H](CCCCN)C(=O)N2)NC(=O)[C@H](CSSC[C@@H](C(=O)N[C@@H](C)C(=O)N[C@@H](CC(N)=O)C(=O)N[C@@H](CCCNC(=N)N)C(=O)O)NC(=O)[C@H]([C@@H](C)O)NC(=O)CNC(=O)[C@H](CO)NC(=O)[C@H](CCCCN)NC(=O)[C@H](CCC(N)=O)NC(=O)CNC(=O)[C@H](C)NC(=O)[C@H](Cc2ccc(O)cc2)NC(=O)[C@H](CCCNC(=N)N)NC(=O)[C@H](CC(C)C)NC3=O)NC(=O)[C@@H]2CCCN2C(=O)[C@@H]2CCCN2C(=O)[C@H]([C@@H](C)CC)NC(=O)[C@H](CO)NC1=O [bleogen pB1],endothelial cell tube formation,HUVEC-CS cells,accelerate
same,time of incisor eruption in newborn mice,newborn ICR mice,125 h
same,"proliferative activities on HaCaT cells, native versus synthetic",HaCaT cells,identical proliferative activities
same,EC50,HaCaT cells; 72 h,130 nM
same,difference in mitogenic potency between EGF and pB1,HaCaT cells; HaCaT cell proliferation EC50,100 fold
same,EGFR dependence of proliferative/mitogenic effect,HaCaT cells; co-incubation with EGFR neutralizing antibody (clone LA1),EGFR-dependent
same,mRNA expression of c-Jun,c-Jun,significantly upregulate
same,phosphorylation of EGFR,EGFR,induces the phosphorylation
same,SRE-luciferase activity,[1],"dose-dependently, increases the luciferase activity"
same,proliferation of primary human keratinocytes,[2],promotes the proliferation
